# Data published in publication PMC12621043, “Un-LOK-ing a New Approach for Conformational Selective Targeting of STK10 (LOK)” (ACS Medicinal Chemistry Letters, 2025).
# Assays:
# Assay in all cases: DSF Tm panel
# Assay type in all cases: binding
# Conditions in all cases: 10 μM compound
# MAPK10A = target: T1, MAPK10A (Homo sapiens, UniProt P53779)
# T1 construct: purchased in-house DSF kinase panel (SGC-style construct names; the trailing letter is the construct ID)
# MARK3A = target: T2, MARK3A (Homo sapiens, UniProt P27448)
# T2 construct: purchased in-house DSF kinase panel (SGC-style construct names; the trailing letter is the construct ID)
# T2 sequence (P27448 56-307): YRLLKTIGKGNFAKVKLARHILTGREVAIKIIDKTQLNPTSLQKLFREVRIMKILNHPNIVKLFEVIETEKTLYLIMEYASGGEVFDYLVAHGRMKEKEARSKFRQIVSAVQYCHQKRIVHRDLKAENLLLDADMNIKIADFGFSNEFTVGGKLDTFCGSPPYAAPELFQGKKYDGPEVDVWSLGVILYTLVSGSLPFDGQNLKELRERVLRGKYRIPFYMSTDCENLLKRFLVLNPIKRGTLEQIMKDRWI
# NEK1A = target: T3, NEK1A (Homo sapiens, UniProt Q96PY6)
# T3 construct: purchased in-house DSF kinase panel (SGC-style construct names; the trailing letter is the construct ID)
# T3 sequence (Q96PY6 1-328): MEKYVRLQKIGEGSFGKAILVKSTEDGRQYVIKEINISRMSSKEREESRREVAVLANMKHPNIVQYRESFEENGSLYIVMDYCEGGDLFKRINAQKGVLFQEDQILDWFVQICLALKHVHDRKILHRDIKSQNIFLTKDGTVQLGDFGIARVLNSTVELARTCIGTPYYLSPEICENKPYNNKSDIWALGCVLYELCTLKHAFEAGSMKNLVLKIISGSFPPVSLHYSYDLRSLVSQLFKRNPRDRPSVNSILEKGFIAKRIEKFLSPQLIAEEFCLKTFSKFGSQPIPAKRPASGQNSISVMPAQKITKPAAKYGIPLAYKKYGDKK
# DCAMKL1A = target: T4, DCAMKL1A (Homo sapiens, UniProt O15075)
# T4 construct: purchased in-house DSF kinase panel (SGC-style construct names; the trailing letter is the construct ID)
# T4 sequence (O15075 372-649): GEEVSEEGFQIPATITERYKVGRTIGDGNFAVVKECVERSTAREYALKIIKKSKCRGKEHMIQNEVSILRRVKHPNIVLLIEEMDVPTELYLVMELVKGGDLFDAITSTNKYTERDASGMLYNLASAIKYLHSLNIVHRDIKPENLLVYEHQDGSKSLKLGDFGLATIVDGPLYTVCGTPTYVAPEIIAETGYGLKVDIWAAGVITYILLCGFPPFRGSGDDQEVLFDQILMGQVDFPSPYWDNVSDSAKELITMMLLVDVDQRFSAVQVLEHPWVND
# GPRK5A = target: T5, GPRK5A (Homo sapiens, UniProt P34947)
# T5 construct: purchased in-house DSF kinase panel (SGC-style construct names; the trailing letter is the construct ID)
# T5 sequence (P34947 186-514): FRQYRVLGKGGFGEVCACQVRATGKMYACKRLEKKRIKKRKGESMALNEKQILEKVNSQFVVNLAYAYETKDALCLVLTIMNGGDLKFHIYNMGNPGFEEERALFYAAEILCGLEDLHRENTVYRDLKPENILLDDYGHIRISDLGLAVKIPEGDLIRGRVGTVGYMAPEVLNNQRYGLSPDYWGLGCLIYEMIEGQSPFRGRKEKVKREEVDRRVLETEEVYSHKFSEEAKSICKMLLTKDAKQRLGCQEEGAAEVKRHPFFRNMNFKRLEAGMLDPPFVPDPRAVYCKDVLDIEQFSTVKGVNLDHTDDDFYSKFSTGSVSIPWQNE
# STK10 = target: T6, STK10 (Homo sapiens, UniProt O94804)
# T6 construct: purchased in-house DSF kinase panel (SGC-style construct names; the trailing letter is the construct ID)
# T6 sequence (O94804 18-317 limits assumed): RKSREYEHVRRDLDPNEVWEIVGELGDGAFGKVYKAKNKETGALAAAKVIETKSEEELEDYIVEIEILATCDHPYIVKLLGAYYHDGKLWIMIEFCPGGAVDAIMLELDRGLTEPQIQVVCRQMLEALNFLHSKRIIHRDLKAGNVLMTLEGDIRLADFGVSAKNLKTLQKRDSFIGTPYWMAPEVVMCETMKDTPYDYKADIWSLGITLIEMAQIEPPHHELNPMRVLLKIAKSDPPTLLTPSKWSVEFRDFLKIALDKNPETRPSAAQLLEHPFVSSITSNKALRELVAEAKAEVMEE
# DMPK1A = target: T7, DMPK1A (Homo sapiens, UniProt Q09013)
# T7 construct: purchased in-house DSF kinase panel (SGC-style construct names; the trailing letter is the construct ID)
# T7 sequence (Q09013 1-629): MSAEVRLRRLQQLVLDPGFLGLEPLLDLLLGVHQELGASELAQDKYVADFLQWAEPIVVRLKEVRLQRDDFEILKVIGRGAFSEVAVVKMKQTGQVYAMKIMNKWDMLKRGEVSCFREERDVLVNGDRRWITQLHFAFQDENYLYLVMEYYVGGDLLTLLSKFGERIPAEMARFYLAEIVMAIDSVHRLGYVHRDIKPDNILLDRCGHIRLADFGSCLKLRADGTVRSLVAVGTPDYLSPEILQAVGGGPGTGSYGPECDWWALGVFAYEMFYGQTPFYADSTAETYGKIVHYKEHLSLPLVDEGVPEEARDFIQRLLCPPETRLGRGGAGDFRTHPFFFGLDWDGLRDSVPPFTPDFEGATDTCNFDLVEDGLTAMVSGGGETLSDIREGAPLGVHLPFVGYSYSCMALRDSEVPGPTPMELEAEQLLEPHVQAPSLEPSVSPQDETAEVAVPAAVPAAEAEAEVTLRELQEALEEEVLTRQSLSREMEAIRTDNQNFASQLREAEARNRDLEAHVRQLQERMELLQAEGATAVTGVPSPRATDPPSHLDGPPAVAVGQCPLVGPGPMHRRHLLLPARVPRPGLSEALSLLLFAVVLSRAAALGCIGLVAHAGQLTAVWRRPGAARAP
# MAP3K5A = target: T8, MAP3K5A (Homo sapiens, UniProt Q99683)
# T8 construct: purchased in-house DSF kinase panel (SGC-style construct names; the trailing letter is the construct ID)
# T8 sequence (Q99683 659-951): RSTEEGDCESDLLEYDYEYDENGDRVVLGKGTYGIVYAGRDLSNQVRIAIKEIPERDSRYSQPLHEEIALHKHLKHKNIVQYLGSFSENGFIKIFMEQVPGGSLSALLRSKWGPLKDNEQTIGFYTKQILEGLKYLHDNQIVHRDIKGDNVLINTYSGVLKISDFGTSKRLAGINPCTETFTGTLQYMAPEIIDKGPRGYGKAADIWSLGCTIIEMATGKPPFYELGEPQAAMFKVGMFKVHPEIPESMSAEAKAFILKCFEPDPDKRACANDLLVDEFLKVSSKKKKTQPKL
# OSR1A = target: T9, OSR1A (Homo sapiens, UniProt O95747)
# T9 construct: purchased in-house DSF kinase panel (SGC-style construct names; the trailing letter is the construct ID)
# T9 sequence (O95747 17-291): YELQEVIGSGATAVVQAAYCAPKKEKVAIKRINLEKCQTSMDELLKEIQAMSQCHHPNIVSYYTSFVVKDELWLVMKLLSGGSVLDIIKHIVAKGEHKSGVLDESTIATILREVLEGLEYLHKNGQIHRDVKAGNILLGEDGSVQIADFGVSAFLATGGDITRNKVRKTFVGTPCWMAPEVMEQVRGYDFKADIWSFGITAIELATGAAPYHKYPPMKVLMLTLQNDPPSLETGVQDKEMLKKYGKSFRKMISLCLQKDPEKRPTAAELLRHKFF
# MARK4A = target: T10, MARK4A (Homo sapiens, UniProt Q96L34)
# T10 construct: purchased in-house DSF kinase panel (SGC-style construct names; the trailing letter is the construct ID)
# T10 sequence (Q96L34 59-310): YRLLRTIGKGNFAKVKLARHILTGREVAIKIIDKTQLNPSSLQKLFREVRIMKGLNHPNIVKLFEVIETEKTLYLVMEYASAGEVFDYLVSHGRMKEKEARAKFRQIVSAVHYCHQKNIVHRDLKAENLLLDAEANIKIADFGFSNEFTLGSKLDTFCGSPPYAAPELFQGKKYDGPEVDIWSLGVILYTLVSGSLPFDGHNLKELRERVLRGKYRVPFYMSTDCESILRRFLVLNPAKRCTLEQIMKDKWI
# CAMK2DA = target: T11, CAMK2DA (Homo sapiens, UniProt Q13557)
# T11 construct: purchased in-house DSF kinase panel (SGC-style construct names; the trailing letter is the construct ID)
# T11 sequence (Q13557 11-309): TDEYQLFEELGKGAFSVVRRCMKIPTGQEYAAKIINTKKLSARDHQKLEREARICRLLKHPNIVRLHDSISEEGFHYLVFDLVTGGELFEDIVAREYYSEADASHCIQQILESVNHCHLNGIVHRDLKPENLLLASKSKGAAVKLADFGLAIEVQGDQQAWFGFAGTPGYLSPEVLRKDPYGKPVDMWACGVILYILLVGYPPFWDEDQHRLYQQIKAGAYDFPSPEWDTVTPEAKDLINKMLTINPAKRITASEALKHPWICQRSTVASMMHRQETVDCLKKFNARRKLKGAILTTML
# EPHA2 (EPHA2A) = target: T12, EPHA2 (EPHA2A) (Homo sapiens, UniProt P29317)
# T12 construct: purchased in-house DSF kinase panel (SGC-style construct names; the trailing letter is the construct ID)
# T12 sequence (P29317 596-900): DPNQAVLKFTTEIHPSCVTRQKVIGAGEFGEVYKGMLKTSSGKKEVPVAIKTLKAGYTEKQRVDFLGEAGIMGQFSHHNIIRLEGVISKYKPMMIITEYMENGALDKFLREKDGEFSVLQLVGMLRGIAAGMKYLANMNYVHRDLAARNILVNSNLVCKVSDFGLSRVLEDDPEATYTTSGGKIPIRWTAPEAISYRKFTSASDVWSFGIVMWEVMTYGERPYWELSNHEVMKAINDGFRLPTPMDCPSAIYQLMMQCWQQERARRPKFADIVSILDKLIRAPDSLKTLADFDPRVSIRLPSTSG
# T1 sequence (P53779 39-402): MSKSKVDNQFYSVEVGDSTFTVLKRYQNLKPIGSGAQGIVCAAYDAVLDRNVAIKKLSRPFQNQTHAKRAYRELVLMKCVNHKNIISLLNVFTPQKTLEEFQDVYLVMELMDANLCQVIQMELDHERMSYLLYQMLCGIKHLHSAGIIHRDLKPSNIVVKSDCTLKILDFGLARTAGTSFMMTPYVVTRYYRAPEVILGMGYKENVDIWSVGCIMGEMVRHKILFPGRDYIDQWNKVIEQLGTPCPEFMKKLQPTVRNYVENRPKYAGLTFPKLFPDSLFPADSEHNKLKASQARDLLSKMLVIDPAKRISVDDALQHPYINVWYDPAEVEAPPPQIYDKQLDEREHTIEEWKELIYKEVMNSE
ΔTm at 10 µM (MAPK10A),ΔTm at 10 µM (MARK3A),ΔTm at 10 µM (NEK1A),ΔTm at 10 µM (DCAMKL1A),ΔTm at 10 µM (GPRK5A),ΔTm at 10 µM (STK10),ΔTm at 10 µM (DMPK1A),ΔTm at 10 µM (MAP3K5A),ΔTm at 10 µM (OSR1A),ΔTm at 10 µM (MARK4A),ΔTm at 10 µM (CAMK2DA),ΔTm at 10 µM (EPHA2 (EPHA2A)),ΔTm STK10 (STK10; 10 µM),SMILES
0.7 °C,0.2 °C,-0.4 °C,1.4 °C,0.9 °C,6 °C,1 °C,1.6 °C,1.3 °C,2 °C,2.8 °C,0.4 °C,"6,7 °C",COc1ccc(CNC(=O)Nc2ccc3cc2OCCOCCNc2ccn4ncc-3c4n2)cc1 [compound 31]
0.6 °C,0.7 °C,0.2 °C,-0.1 °C,1.1 °C,9.4 °C,0.1 °C,1.6 °C,1.7 °C,1.4 °C,0.5 °C,0.6 °C,–,O=C(NCc1cccc(Cl)c1)Nc1ccc2cc1OCCOCCNc1ccn3ncc-2c3n1 [compound 18]
1 °C,2.4 °C,0.9 °C,0.7 °C,0.8 °C,11.1 °C,0.5 °C,1 °C,0.8 °C,1.5 °C,1.7 °C,0.5 °C,–,Cc1cc(Cl)ccc1CNC(=O)Nc1ccc2cc1OCCOCCNc1ccn3ncc-2c3n1 [compound 23]
1.1 °C,1.4 °C,0 °C,2.7 °C,0.7 °C,9.9 °C,0.3 °C,2.1 °C,2.2 °C,2.7 °C,2.7 °C,0.1 °C,–,O=C(NCc1ccc(C(F)(F)F)cc1)Nc1ccc2cc1OCCOCCNc1ccn3ncc-2c3n1 [compound 28]

# Second part, the compound before the results:
SMILES,ΔTm at 10 µM (MAPK10A),ΔTm at 10 µM (MARK3A),ΔTm at 10 µM (NEK1A),ΔTm at 10 µM (DCAMKL1A),ΔTm at 10 µM (GPRK5A),ΔTm at 10 µM (STK10),ΔTm at 10 µM (DMPK1A),ΔTm at 10 µM (MAP3K5A),ΔTm at 10 µM (OSR1A),ΔTm at 10 µM (MARK4A),ΔTm at 10 µM (CAMK2DA),ΔTm at 10 µM (EPHA2 (EPHA2A)),ΔTm STK10 (STK10; 10 µM)
O=C(NCc1ccccc1C(F)(F)F)Nc1ccc2cc1OCCOCCNc1ccn3ncc-2c3n1 [compound 27],0.7 °C,1.4 °C,-0.4 °C,2.3 °C,0.2 °C,10.2 °C,0.2 °C,1.4 °C,2.1 °C,2.7 °C,2.5 °C,0.2 °C,–
O=C(NCc1ccc(Cl)cc1Cl)Nc1ccc2cc1OCCOCCNc1ccn3ncc-2c3n1 [compound 20],1.6 °C,1.7 °C,0.7 °C,0.6 °C,1.3 °C,9.6 °C,0.7 °C,2.2 °C,1.8 °C,2 °C,0.9 °C,0.4 °C,–
CN1CCN(C(=O)Nc2ccc3cc2OCCOCCNc2ccn4ncc-3c4n2)CC1 [compound 35],-0.7 °C,0.5 °C,0.4 °C,0.6 °C,0.8 °C,3.7 °C,0.2 °C,1.7 °C,0 °C,0.8 °C,0.5 °C,0.6 °C,–
Cc1cc(Br)ccc1CNC(=O)Nc1ccc2cc1OCCOCCNc1ccn3ncc-2c3n1 [compound 24],0.5 °C,0.8 °C,-0.4 °C,1.6 °C,0 °C,8.3 °C,0.3 °C,1.4 °C,1.6 °C,1.9 °C,2.2 °C,0.2 °C,–
COc1cccc(CNC(=O)Nc2ccc3cc2OCCOCCNc2ccn4ncc-3c4n2)c1 [compound 30],0.5 °C,-0.3 °C,-0.2 °C,1.2 °C,0.5 °C,7.1 °C,0.4 °C,1.5 °C,1.2 °C,1.5 °C,2.3 °C,0.4 °C,–
